US20070254055A1, “Therapeutic Avenanthramide Compounds” (TRUSTEES OF TUFTS COLLEGE, priority 2003, published 2007)

How the values were obtained:
A10 SMC = experiment: Cell cycle distribution by flow cytometry, A10 cells; format: cell-based, rat; details: 120 μM, 48 h
Procedure: At 50% confluence (exponentially growing phase), A10 cells were seeded into 100 mm culture dishes and were treated with different concentrations of Avn for 48 h. Cells were then harvested by trypsin/EDTA treatment, washed with PBS and fixed with 70% ethanol at 4° C. for 1 hr. Prior to analysis, cells were washed again with PBS and stained with 1.0 mL of propidium iodide (PI) solution containing 25 μg/mL PI and 10 μg/mL RNase in PBS at 4° C. for 30 min in the dark. Cell cycle distributions were then analyzed by flow cytometry using the fluorescence-activated cell sorting (FACS) analysis. To calculate percentage of cells in respective phases of the cell cycle the DNA content frequency histograms were deconvoluted. Based on the DNA content, the cell cycle can be distinguished from G1 to S and G2-M phase.

U937 cells = experiment: Hydrogen peroxide-induced ROS production in U937 cells (DCHF); format: cell-based, human; details: 18 h pretreatment
Procedure: Pretreatment of H2O2-stimulated U937 cells with 1, 5, and 10 μM of Avn reduced the ROS production by 22, 50, and 76%, respectively, indicating the inhibitory effect is dose-dependent.

pRb = pRb phosphorylation Western blot, FBS-stimulated A10 cells; format: cell-based, rat; details: 10% FBS, 20 h
Procedure: (§1) Protein from 5×10^4 cells was subjected to electrophoresis on 7.5-10% SDS-polyacrylamide gels and electro-transferred to nirocellulose membrane. Nonspecific binding was blocked by incubating with Tris-buffered saline (TBS) [137 mM NaCl, and 15 mM Tris-HCl (pH 7.6)] containing 5% non-fat milk (w/v) for 1 h at room temperature and then probed with primary antibody against p53, p21, p27, cyclin D1 and pRb overnight. After washing in TBS-Tween 20 buffer (0.075% v/v), the membranes were incubated with horseradish peroxidase-conjugated anti-IgG antibody. Proteins bound to the primary antibodies were detected with ECL detection reagents.
Based on the above findings that treatment of A10 cells with Avn arrests the cell cycle at G1 phase, the effect of Avn treatment on cell cycle regulatory molecules involved in G1 phase of the cell cycle progression were analyzed. pRB, the product of the retinoblastoma tumor suppressor gene, is a major cell cycle regulator and its hyperphosphorylation (ppRb) is necessary for G1-S phase transition. To elucidate the mechanism by which Avn inhibits the cell cycle progression, the changes in pRB phosphorylation status were measured using anti-phospho-pRb specific antibody. FIG. 11 is a Western blot showing the effects of Avn on pRB phosphorylation. Av inhibits pRb phosphorylation in A10 cells stimulated with FBS. […]

[1] = test system: human aortic smooth muscle cells (HSMC); experiment: Cell number counting, HSMC; format: cell-based; details: 120 μM
Procedure: HSMC or A10 cells (rat embryonic aortic smooth muscle cell) were seeded into 6-well plate at a density of 0.5×10^4/well. Four hr later 120 μM of avenanthramide were added to each well. At different time points (2d, 3d and 4d) the cells were trypsinzied and the total cell number were counted using a hemocytometer. Trypan blue exclusion test was carried out to determine the cell viability.

p53 = p53 protein level Western blot, A10 cells; format: cell-based, rat
Procedure: as §1
Induction of the tumor suppressor p53 has been implicated in the control of cell growth of SMC, and some antioxidants in green tea or red wine can increase the p53 protein expression level. Therefore, the effect of substantially purified Avn-C treatment on p53 protein levels was explored. A10 cells were seeded into 100 mm Petri dishes and grown in 10% FBS culture medium until 70% confluence. Cells were either left untreated or treated with different concentrations of Avn (0-120 uM), and the cells were harvested after 24 h. Whole cell lysates were prepared and subjected to Western blot analysis for p53 and β-actin levels.

NO production of HSMC = experiment: NO production, DAF-2 fluorescence assay, HSMC; format: cell-based, human
Source text: (§2) In addition to its vasodilating feature, NO has antiatherosclerotic properties, such as prevention of platelet aggregation, leukocyte adhesion, smooth muscle cell proliferation, and the expression of genes involved in atherogenesis. In this study, the human aortic smooth muscle cells (HSMC) and human aortic endothelia cells (HEC) were used to determine if avenanthramides can influence the NO production level. Synthetic Av-C was used in this experiment. The quantification of NO production was performed by the 4,5 diaminofluorescein (DAF-2) fluorescence assay. Briefly, cells were seeded into 24-well plate and let them grow to 90% confluent condition. The cells were pretreated with different concentrations of Avenanthramide for 24 h. The culture medium was then changed to PBS containing 100 μM L-arginine, 1 μM bradykinin and L-NAME. Then 0.1 μM of DAF-2 was added to each well. After another 2 h of incubation, 200 μL of supernatants were transferred to black microplates and the fluorescence was measured with a fluorescence microplate reader calibrated for excitation at 485 nm and emission at 538 nm.

p21cip1 = p21cip1 expression Western blot, A10 cells; format: cell-based, rat; details: 10% FBS, 20 h, highest level at 120 μM
Procedure: as §1
Cyclin-dependent kinase (cdk) inhibitors play important roles in cell cycle progression. P21cip1 is the main target of p53 medicated cell cycle inhibition. […] The effect of Avn on this CDK inhibitor p21cip1 protein expression was determined by Western blotting. A10 cells were synchronized by growning in FBS-free medium for 24 h. The cells were then stimulated with 10% FBS in the absence or presence of different concentrations of substantially purified Avn-C. After 20 h, total cell lysates were prepared and subjected to SDS-PAGE followed by Western blot analysis to detect p21cip and p27kip. β-Actin expression was used as loading control. […]

NO production of HAEC = experiment: NO production, DAF-2 fluorescence assay, HAEC; format: cell-based, human; details: 120 μM, 24 h
Source text: as §2

In the case of O=C(/C=C/c1ccc(O)c(O)c1)Nc1ccc(O)cc1C(=O)O [Avn-C, Avenanthramide C], the “population of cells in G0/G1-phase” value (A10 SMC; growing cells (control 49.7%)) is reported as 66.9%, the “population of cells in S-phase” value (A10 SMC; growing cells (control about 40%)) is reported as 25.7% and the “reduction of H2O2-induced ROS production” value (U937 cells; 1 μM) is reported as 22%. The “reduction of H2O2-induced ROS production” value (U937 cells; 5 μM) was 50%, the “reduction of H2O2-induced ROS production” value (U937 cells; 10 μM) was 76% and the “expression of the total amount of pRb” value (pRb) was “did not change”. The “serum-induced pRB phosphorylation” value (pRb; different concentrations) was “dose-dependently inhibited”, the “inhibition of cell growth” value ([1]; 4 days) was “more than 50%” and the doubling time ([1]; HSMC) was “more than 48 hr”. The “increase of p53 protein level” value (p53) was “up to 3 fold”, the p53 protein levels (p53; 0-120 uM, 24 h) was “dose-dependent increase” and the “increase of NO production” value (NO production of HSMC; 80 μM, HASMC) was 2.1 fold. For the same compound, the “increase in NO production compared with control” value (NO production of HSMC; 120 μM, 24 h, HSMC) was 3.0 folds, the p21 expression level (p21cip1) was “increased significantly” and the “increase in NO production compared with control” value (NO production of HAEC) was 8.8 folds.
